In patent US20220047752A1, “BIOLOGICAL INDICATOR FOR DISINFECTION PROCESS CHALLENGE DEVICE” (3M INNOVATIVE PROPERTIES COMPANY, priority 2016, published 2022):

Experiments:
[1] = tested on: Aspergillus brasiliensis (ATCC 16404) spores; assay: Liquid disinfection process in AER basin, indicator device not connected to the pump; spore viability in malt extract broth; assay type: cell-based; conditions: 0.35% OPA (minimum effective concentration), 5 minute contact at 25 C, two rinses with purified water; approx. 1x10^6 spores on carrier; broth incubated 7 days at 30 C
Procedure: (§1) Aspergillus brasiliensis (ATCC 16404) was inoculated onto the surface of a potato dextrose agar culture and incubated 14 days at 25-30° C. After the incubation period, the surface of the plate was flooded with an aqueous solution of glycerol (10% v/v) and Tween 20 detergent (0.05% v/v). The viable fungal spore population was determined by standard plate counting method using PETRIFILM™ Rapid Yeast and Mold Count Plates (RYM) obtained from 3M Company (St. Paul, Minn.). The plates were incubated at 28-30° C. for 2-3 days. The resulting spore suspension was stored at −80 degrees C. until use.
(§2) The spore suspension was diluted in water to a concentration of approximately 10^8 spores/mL. Ten microliters (approximately 1×10^6 spores) of the diluted spore suspension was pipetted onto a circular disc (approximately 0.25 inch (6.4 mm) diameter) nonwoven carrier material (Sontara® grade 8005 nonwoven material obtained from Dupont (Candler, N.C.)). The spore-coated discs were allowed to dry for 24 hours at room temperature before assembling the indicator device.
(§3) Indicator devices were made by inserting aerosol-filter pipet tips (Part #16466-008; sterile aerosol 1000 uL pipet tips; VWR; Radnor, Pa.) into a piece of hollow tubing (Part #14-169-7C; PVC tubing, 0.25-inch (6.4 mm) inner diameter; Fisher Scientific; Waltham, Mass.), as shown in FIGS. 13-14. […]

[2] = tested on: Aspergillus brasiliensis (ATCC 16404) spores; assay: Flow-through disinfection, indicator device connected to the AER flow pump system; spore viability in malt extract broth; assay type: cell-based; conditions: 0.35% OPA at 25 C pumped through device at approx. 25 ml/min, incubated up to 7 days, duplicate devices
Procedure: as §1, §2, §3

Measured: growth of spores in malt extract broth after contact with the liquid disinfectant

O=Cc1ccccc1C=O [OPA, ortho-phthalaldehyde]
No growth: [1] | [2]; 30 seconds contact | [2]; 5 minutes contact
